Source: patent publication US5010064A, “Inclusion complexes of dipyridamole with cyclodextrins” (Edmond Pharma s.r.l., priority 1987, dated 1991)

Tests used:
[1] = tested on: platelet aggregation (ADP-induced) in platelet rich plasma of rabbits; assay: platelet aggregation inhibiting activity ex vivo; type: in vivo, New Zealand rabbit
Procedure: The platelet rich plasma (PRP) has been separated by centrifugation for 10 minutes and has been suitable diluted to have always 250,000-300,000 platelet/mm^3 with plasma free of platelets (obtained from blood samples by further centrifugation for 10 minutes at 3200 rpm.
The platelet aggregation has been measured by the turbidimetric method under continuous stirring at 37° C., after having added ADP (Adenosine diphosphate to PRP (1.5 μg/ml).

[2] = dog, oral, 75 mg active ingredient; 0 min
Procedure: (§1) Studies have been carried out on Beagle dogs (male and female; body weight 10-11 kg) following an experimental scheme in "cross over".
(§2) The blood has been collected in the presence of eparine (10 U.I./ml) and the plasma, separated by centrifugation, has been immediately frozen and stored at -20° C. until extraction. After about 10-20 days of storage, 0.2 ml of plasma has been drawn from each sample and mixed for 15 seconds with 0.5 ml of NaOH 1N. Thereafter, 4 ml of terbutylmethylether have been added and the whole has been stirred for 1 minute. In order to separate the aqueous phase from the organic phase the whole has been centrifuged for 5 minutes. The organic phase has been then removed and dried to dryness under nitrogen stream. […] An excitation wave length of 285 nm has been chosen in connection with an emission filter of 470 nm.

[3] = pH higher than 5.5-6; cited from earlier work
[4] = cited from earlier work
in vivo = conditions: dog, plasma, po, 75 mg
Procedure: as §1, §2

Compound: OCCN(CCO)c1nc(N2CCCCC2)c2nc(N(CCO)CCO)nc(N3CCCCC3)c2n1 [dipyridamole, 2,2',2",2"'-(4,8-dipiperidinopyrimido/5,4,d/-pyrimidine-2,6-diyldinitrilo)tetraethanol]
- % platelet aggregation ([1]; 10 mg/kg os, 0 hr): 83 ± 3.0%
- % platelet aggregation ([1]; 10 mg/kg os, 0.5 hr): 63 ± 3.7%
- % platelet aggregation ([1]; 10 mg/kg os, 1 hr): 44 ± 3.2%
- % platelet aggregation ([1]; 10 mg/kg os, 2 hr): 40 ± 2.9%
- % platelet aggregation ([1]; 10 mg/kg os, 4 hr): 49 ± 2.7%
- % platelet aggregation ([1]; 20 mg/kg os, 0 hr): 87 ± 3.2%
- % platelet aggregation ([1]; 20 mg/kg os, 0.5 hr): 58 ± 5.9%
- % platelet aggregation ([1]; 20 mg/kg os, 1 hr): 29 ± 4.1%
- % platelet aggregation ([1]; 20 mg/kg os, 2 hr): 27 ± 3.8%
- % platelet aggregation ([1]; 20 mg/kg os, 4 hr): 38 ± 3.9%
- average plasma concentration of dipyridamole [2]: 0
- solubility in water [3]: poor soluble in water
- blood level at which not pharmacologically active ([4]; in vivo): 0.5-1 γ/ml
- blood level with undesired side effects (cephalea and nausea) ([4]; in vivo): 2000 to 2500 ng/mL
- adsorption ([4]; in words): not well adsorbed
- variability of blood levels between and within subjects ([4]; in words): blood levels different from one to another subject and for repeated administrations in the same subject
- blood level needed to be active as platelet aggregation inhibiting agent ([4]; man): higher than 1 mcg/ml
- upper blood level (might show side effects such as cephalea and nausea) ([4]; man): 2.0 to 2.5 µg/mL
- concentration at 10 min (in vivo): 8 ng/mL
- concentration at 20 min (in vivo): 24 ng/mL
- concentration at 0.5 h (in vivo): 784 ng/mL
- concentration at 0.75 h (in vivo): 1620 ng/mL
- concentration at 1 h (in vivo): 2840 ng/mL
- concentration at 1.5 h (in vivo): 3960 ng/mL
- concentration at 2 h (in vivo): 4710 ng/mL
- concentration at 2.5 h (in vivo): 4730 ng/mL
- concentration at 3 h (in vivo): 2930 ng/mL
- concentration at 4 h (in vivo): 1970 ng/mL
- concentration at 5 h (in vivo): 1290 ng/mL
- concentration at 6 h (in vivo): 628 ng/mL
- concentration at 7 h (in vivo): 360 ng/mL
